Assay results from patent US11325892B2, “Compounds and methods for treating cancer” (Mayo Foundation for Medical Education and Research, priority 2014, dated 2022).

What was measured:
[1] = system: GADD45a, DDIT3, HERPUD1 transcripts in THJ29T, THJ16T, and KTC2; test: QPCR of UPR markers in ATC cells; type: cell-based; conditions: 10 μM, 24 hours; all cell lines; OA restored expression to control levels
Description: RNA isolation, preparation of cDNA, and QPCR performed as previously described (Tun H W, Marlow L A, von Roemeling C A, Cooper S J, Kreinest P, Wu K, Luxon B A, Sinha M, Anastasiadis P Z, Copland J A. Pathway signature and cellular differentiation in clear cell renal cell carcinoma. PLoS One. 2010; 5(5):e10696). TaqMan®CDFAM™ dye-labeled probes: GAPDH(Hs99999905_ml), POLR2A(Hs00172187_ml), SCD/(Hs01682761_HSPA5(Hs99999174_ml), GADD45A(Hs00169255_ml), DD/T3(Hs01090850_ml), and HERPUD/(Hs01124269_ml). Fold-change comparisons between normal vs. tumor, and DMSO vs. drug treated samples calculated using the […] method (Schmittgen T D, Livak K J. Analyzing real-time PCR data by the comparative C(T) method. Nat Protoc. 2008; 3 (6): 1101-8).
Exogenous application of MUFAs, such as oleic or palmitoleic acid, can rescue the proliferative defects generated by SCD1 inhibition as these are the primary products of SCD1 enzymatic activity (Roongta U V, Pabalan J G, Wang X, Ryseck R P, Fargnoli J, Henley B J, Yang W P, Zhu J, Madireddi M T, Lawrence R M, Wong T W, Rupnow B A. Cancer cell dependence on unsaturated fatty acids implicates stearoyl-CoA desaturase as a target for cancer therapy. Mol Cancer Res. 2011; 9(11):1551-61). THJ29T, THJ16T and KTC2 cells were treated with the EC50 dose of A939572 or MF-438 for 72H with or without 5 μM of oleic acid (OA). […]

[2] = system: HK2, a transformed renal epithelial cell line; test: High-throughput proliferative screen, non-cancerous cells; type: cell-based
Procedure: Cells were seeded at 5,000 cells/well in clear-bottom 96-well plates in triplicate in Maintenance Media. Drug treatment was applied at a concentration of 1:1000 in reduced serum (3%) Maintenance Media. After 72 hours, cells were washed with PBS, and stored at −80° C. prior to analysis using CyQuant® Proliferation Analysis Kit (Invitrogen) as per manufacturers' protocol for relative fluorescence units. Alternatively, cells were plated 2×10^5/well in 12-well plates (Midwest Scientific) in triplicate prior to drug treatment. After 120 hour treatment, cell number was established using a Coulter Particle Counter (Beckman). Or, cells were plated (0.5 or 1×10^5/well) in 24-well plates (Midwest Scientific), 3×. After 72 hour treatment, cell number established using Coulter Particle Counter (Beckman). Oleic acid-albumin (Sigma Aldrich) was added to media at 5 μM, and was applied adjuvant to drug treatment. Drug stocks were prepared in DMSO (Sigma) at 1000×. EC50 dosing per cell line was calculated using CalcuSyn® analytical software.
In order to identify potential SCD1 inhibitors, a high-throughput proliferative-based screening method was used, with four ccRCC cell lines including A498, ACHN, Caki1, and Caki2. The SCD1 inhibitor MF-438 was included as a positive control. Known compounds ChemBL375265 (Liu G, Lynch J K, Freeman J, et al. Discovery of potent, selective, orally bioavailable stearoyl-CoA desaturase 1 inhibitors. Journal of medicinal chemistry. Jun. 28, 2007; 50(13): 3086-3100) (SetA.100) and SAR707 (Voss M D, Zoller G, Matter H, et al. Discovery and pharmacological characterization of SAR707 as novel and selective small molecule inhibitor of stearoyl-CoA desaturase (SCD1). European journal of pharmacology. May 5, 2013; 707(1-3): 140-146) (TC03.100) were included as single-blinded positive controls, and are indicated with an asterisk (*). […]

| SMILES | transcription of UPR markers GADD45a, DDIT3, HERPUD1 [1] | reduction in cell proliferation [2] |
| --- | --- | --- |
| CNC(=O)c1cccc(NC(=O)N2CCC(Oc3ccccc3Cl)CC2)c1 [A939572] | transcriptionally upregulated | – |
| Cc1nnc(-c2ccc(N3CCC(Oc4ccccc4C(F)(F)F)CC3)nn2)s1 [MF-438, 2-methyl-5-(6-(4-(2-(trifluoromethyl)phenoxy)piperidin-1-yl)pyridazin-3-yl)-1,3,4-thiadiazole] | – | approximately 20% |
